Here are results for 1 compound from paper PMC8121435, “Cork-in-bottle mechanism of inhibitor binding to mammalian complex I” (Science Advances, 2021).

Holding throughout (format): biochemical
Assay [1] addresses T1, mouse complex I (Mus musculus, UniProt P03888+Q91WD5+Q9DC70).
T1 construct: from tissue; host or cells: mouse (C57BL/6) heart mitochondria
Kind of assay: NADH:decylubiquinone oxidoreduction by purified mouse complex I. The conditions noted are these: purified mouse complex I ~0.5 nM, 200 μM dQ, 200 μM NADH, 32°C; Hill slope constrained to −1; ± SE. As for the experimental part: (§1) All catalytic activity assays were conducted at 32°C in 96-well plates using a Molecular Devices Spectramax 384 plus plate reader. Catalysis was initiated by addition of 200 μM NADH and monitored at 340 and 380 nm (ε340–380 = 4.81 mM^−1 cm^−1). Linear rates were measured for all assays, inhibitors were added from dimethyl sulfoxide stock solutions as required, and inhibitor-insensitive rates (using either 1 μM piericidin A or 1.4 μM IACS-2858) were subtracted from each measured rate. Membrane samples were prepared as described previously ([17], [20], [59], [60]), diluted to 20 μg ml^−1 in 10 mM tris-SO4 (pH 7.5) and 250 mM sucrose, and supplemented with 3 μM horse heart cytochrome c (except for P. denitrificans, for which the activity is unaffected by the addition). Mouse, bovine, and yeast (Y. lipolytica) complex I were purified as described previously ([17], [20], [59]); diluted to 0.5 nM in 20 mM tris-HCl (pH 7.5), 0.15% asolectin, and 0.15% CHAPS; and assayed using either 200 μM dQ or 200 μM ubiquinone-1 (Sigma-Aldrich). Complex I was purified from P. denitrificans strain Pd1222 ([61]) and provided by O. D. Jarman (MRC Mitochondrial Biology Unit, University of Cambridge); it was assayed likewise but in 10 mM MES-HCl (pH 6.5), 25 mM NaCl, and 2 mM CaCl2. Bovine SMPs were prepared as described previously ([61]) and diluted to 20 μg ml^−1 in 10 mM tris-SO4 (pH 7.5) and 250 mM sucrose for FET and RET assays. The RET assay was initiated using 1 mM NAD^+, 1 mM ATP, 10 mM succinate, 1 mM cyanide, and 2 mM MgSO4, in the absence of NADH. AOX from Trypanosoma brucei brucei was prepared as described previously ([23]). Complex I proteoliposomes were assayed using 10 mM Mops-KOH (pH 7.5), 50 mM KCl, and AOX (10 μg ml^−1).

The target of assay [2] is T2, complex I in mitochondrial membranes (Mus musculus, UniProt P03888+Q91WD5+Q9DC70).
T2 construct: from tissue; host or cells: mouse (C57BL/6) heart mitochondria
Kind of assay: NADH oxidation in mouse mitochondrial membranes. The conditions noted are these: M. musculus membranes 20 μg ml−1; ± SE. Here is the method: as §1, with “Bovine SMPs were prepared as described previously ([61]) and diluted to 20 μg ml^−1 in 10 mM tris-SO4 (pH 7.5) and 250 mM sucrose for FET and RET assays. The RET assay was initiated using 1 mM NAD^+, 1 mM ATP, 10 mM succinate, 1 mM cyanide, and 2 mM MgSO4, in the absence of NADH. AOX from Trypanosoma brucei brucei was prepared as described previously ([23]). Complex I proteoliposomes were assayed using 10 mM Mops-KOH (pH 7.5), 50 mM KCl, and AOX (10 μg ml^−1).” left out

The target in assay [3] is T3, P. denitrificans complex I (Paracoccus denitrificans, UniProt P29916+P29918+P29920).
T3 construct: Complex I was purified from P. denitrificans strain Pd1222; endogenous in cells; host or cells: P. denitrificans strain Pd1222
Kind of assay: NADH:decylubiquinone oxidoreduction by purified P. denitrificans complex I. The conditions noted are these: dQ, pH 6.5. As for the experimental part:
as §1, with “Bovine SMPs were prepared as described previously ([61]) and diluted to 20 μg ml^−1 in 10 mM tris-SO4 (pH 7.5) and 250 mM sucrose for FET and RET assays. The RET assay was initiated using 1 mM NAD^+, 1 mM ATP, 10 mM succinate, 1 mM cyanide, and 2 mM MgSO4, in the absence of NADH. AOX from Trypanosoma brucei brucei was prepared as described previously ([23]). Complex I proteoliposomes were assayed using 10 mM Mops-KOH (pH 7.5), 50 mM KCl, and AOX (10 μg ml^−1).” left out

In assay [4] the target is T4, yeast (Y. lipolytica) complex I (Yarrowia lipolytica, UniProt Q9B6E8+Q9UUT7+Q9UUU1).
T4 sequence (Q9B6E8 1-341): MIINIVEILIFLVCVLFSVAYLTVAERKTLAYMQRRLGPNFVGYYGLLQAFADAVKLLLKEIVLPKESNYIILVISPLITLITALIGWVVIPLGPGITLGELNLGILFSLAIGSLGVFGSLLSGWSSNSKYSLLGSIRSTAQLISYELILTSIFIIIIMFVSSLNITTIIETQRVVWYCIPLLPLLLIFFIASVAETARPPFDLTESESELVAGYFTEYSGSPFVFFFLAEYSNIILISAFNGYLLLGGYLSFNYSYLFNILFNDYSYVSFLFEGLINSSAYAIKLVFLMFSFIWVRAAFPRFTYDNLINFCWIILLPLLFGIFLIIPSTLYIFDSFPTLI
T4 sequence (Q9UUU1 22-466): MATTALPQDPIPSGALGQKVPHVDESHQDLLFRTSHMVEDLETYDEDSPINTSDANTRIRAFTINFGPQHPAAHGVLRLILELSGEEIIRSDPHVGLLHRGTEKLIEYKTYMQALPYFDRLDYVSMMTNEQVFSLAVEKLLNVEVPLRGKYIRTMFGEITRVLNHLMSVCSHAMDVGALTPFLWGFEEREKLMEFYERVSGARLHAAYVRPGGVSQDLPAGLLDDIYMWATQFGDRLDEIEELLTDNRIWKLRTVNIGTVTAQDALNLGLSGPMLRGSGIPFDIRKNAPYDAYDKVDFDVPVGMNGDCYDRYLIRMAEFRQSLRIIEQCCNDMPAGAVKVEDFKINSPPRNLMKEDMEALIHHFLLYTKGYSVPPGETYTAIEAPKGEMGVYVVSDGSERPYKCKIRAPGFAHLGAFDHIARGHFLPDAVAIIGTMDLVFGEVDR
T4 sequence (Q9UUT7 28-210): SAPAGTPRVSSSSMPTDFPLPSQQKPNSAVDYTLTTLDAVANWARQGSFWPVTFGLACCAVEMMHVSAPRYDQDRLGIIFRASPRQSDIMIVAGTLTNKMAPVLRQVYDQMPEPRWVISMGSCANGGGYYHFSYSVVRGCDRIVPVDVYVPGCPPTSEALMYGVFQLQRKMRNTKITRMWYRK
Nature of the assay: NADH:decylubiquinone oxidoreduction by purified Y. lipolytica complex I. As for the experimental part: as §1, with “Bovine SMPs were prepared as described previously ([61]) and diluted to 20 μg ml^−1 in 10 mM tris-SO4 (pH 7.5) and 250 mM sucrose for FET and RET assays. The RET assay was initiated using 1 mM NAD^+, 1 mM ATP, 10 mM succinate, 1 mM cyanide, and 2 mM MgSO4, in the absence of NADH. AOX from Trypanosoma brucei brucei was prepared as described previously ([23]). Complex I proteoliposomes were assayed using 10 mM Mops-KOH (pH 7.5), 50 mM KCl, and AOX (10 μg ml^−1).” left out

Assay [5] has as its target T5, complex I in mitochondrial membranes (Bos taurus, UniProt P03887+P17694+P42026).
T5 construct: Complex I from bovine heart were prepared; from tissue; host or cells: bovine heart mitochondria
Kind of assay: NADH oxidation in bovine mitochondrial membranes. The conditions noted are these: B. taurus membranes 20 μg ml−1; ± SE. Here is the method:
as §1, with “Bovine SMPs were prepared as described previously ([61]) and diluted to 20 μg ml^−1 in 10 mM tris-SO4 (pH 7.5) and 250 mM sucrose for FET and RET assays. The RET assay was initiated using 1 mM NAD^+, 1 mM ATP, 10 mM succinate, 1 mM cyanide, and 2 mM MgSO4, in the absence of NADH. AOX from Trypanosoma brucei brucei was prepared as described previously ([23]). Complex I proteoliposomes were assayed using 10 mM Mops-KOH (pH 7.5), 50 mM KCl, and AOX (10 μg ml^−1).” left out

For assay [6], the target named is T6, complex I in bovine SMPs (Bos taurus, UniProt P03887+P17694+P42026).
T6 construct: Complex I from bovine heart were prepared; from tissue; host or cells: bovine heart mitochondria
Nature of the assay: Forward electron transport (NADH oxidation) in bovine heart submitochondrial particles. The conditions noted are these: NADH oxidation rate, ± SE. Here is the method: as §1, with “Bovine SMPs were prepared as described previously ([61]) and diluted to 20 μg ml^−1 in 10 mM tris-SO4 (pH 7.5) and 250 mM sucrose for FET and RET assays. The RET assay was initiated using 1 mM NAD^+, 1 mM ATP, 10 mM succinate, 1 mM cyanide, and 2 mM MgSO4, in the absence of NADH. AOX from Trypanosoma brucei brucei was prepared as described previously ([23]). Complex I proteoliposomes were assayed using 10 mM Mops-KOH (pH 7.5), 50 mM KCl, and AOX (10 μg ml^−1).” left out

Assay [7] addresses T7, complex I in mitochondrial membranes (Yarrowia lipolytica, UniProt Q9B6E8+Q9UUT7+Q9UUU1).
T7 sequence (Q9B6E8 1-341): T4 sequence (Q9B6E8 1-341)
T7 sequence (Q9UUU1 22-466): T4 sequence (Q9UUU1 22-466)
T7 sequence (Q9UUT7 28-210): T4 sequence (Q9UUT7 28-210)
Nature of the assay: NADH oxidation in Y. lipolytica mitochondrial membranes. Here is the method: as §1, with “Bovine SMPs were prepared as described previously ([61]) and diluted to 20 μg ml^−1 in 10 mM tris-SO4 (pH 7.5) and 250 mM sucrose for FET and RET assays. The RET assay was initiated using 1 mM NAD^+, 1 mM ATP, 10 mM succinate, 1 mM cyanide, and 2 mM MgSO4, in the absence of NADH. AOX from Trypanosoma brucei brucei was prepared as described previously ([23]). Complex I proteoliposomes were assayed using 10 mM Mops-KOH (pH 7.5), 50 mM KCl, and AOX (10 μg ml^−1).” left out

In the case of `CS(=O)(=O)C1CCN(c2cccc(Cn3cc(-c4nc(-c5ccc(OC(F)(F)F)cc5)no4)ccc3=O)c2)CC1` [IACS-2858, 1-(3-(4-(Methylsulfonyl)piperidin-1-yl)benzyl)-5-(3-(4-(trifluoromethoxy)phenyl)-1,2,4-oxadiazol-5-yl)pyridin-2(1H)-one], the IC50 – broadly, the midpoint of a concentration-inhibition curve – is 2.8 nM in assay [1]; 1.4 ± 0.1 nM in assay [2]; around 110000 nM in assay [3]; 358 ± 37 nM in assay [4]; 3.4 ± 0.3 nM in assay [5]; 6.4 ± 0.2 nM in assay [6]. Moreover, the IC50 in assay [7] is around 7200 nM.
